Assay results published in publication PMC11946258, “Self-Assembly, Antimicrobial Properties and Biodegradability of Ester-Functionalized Choline-Based Surface-Active Ionic Liquids” (Molecules, 2025).
Several values for one entry are separate records, joined by “and”; a condition that tells them apart may be missing. Equal values may be shown once.

What was measured:
Assay type in all cases: cell-based
[1] = tested on: erythrocytes from rabbit blood; assay: Hemolytic activity; conditions: concentration inducing 50% hemolysis, PBS pH 7.4, 10 min
Description: To perform an initial assessment of cell toxicity, hemolysis has been employed. The hemolytic activity of ester-functionalized choline-based ILs was determined by mesuring the release of haemoglobin in erythrocytes from rabbit blood samples in the presence of these compounds. The HC50 values, representing the concentracion inducing 50% hemolysis, were calculated from the plots of the percentages of hemolysis versus CnECholBr concentration (Figure 7). The HC50 values are compiled in Table 4.
Rabbit blood samples, used to prepare the erythrocyte suspension, were obtained from the animal facility of the Research and Development Center (CID) of the Spanish National Research Council (CID-CSIC) in Barcelona, Spain. The collection of fresh blood from rabbits adhered strictly to the bioethical guidelines stipulated by Spanish legislation, ensuring ethical treatment of the animals and compliance with research protocols. Heparinized blood samples were centrifuged for 10 min at 3000 rpm. The supernatant containing the white cells was discarded, while the erythrocytes were washed three times in PBS (pH 7.4). Erythrocytes were then suspended in PBS at a cell density of 8 × 10^9 cells/mL. A series of different volumes of a concentrated IL solution (10 to 80 μL) were placed in Eppendorf tubes containing 25 μL of erythrocyte suspension and PBS was added to each tube to a total volume of 1 mL [33]. Samples were shaken for 10 min at rt and the tubes were centrifuged (5 min at 10,000 rpm). The percentage of hemolysis was calculated by comparing the absorbance (540 nm) of the supernatant of the samples containing surfactants with that of the hemolyzed control with distilled water. The HC50 (concentration of surfactant that causes 50% hemolysis) was determined from the concentration-response curves.

Klebsiella aerogenes = assay: MIC broth microdilution; conditions: ATCC13048; Klebsiella aerogenes ATCC 13048, 24 h, 37 °C
Description: (§1) The antimicrobial activity of cholinium-based ILs with an ester group in the alkyl chain was evaluated against a range of representative bacteria and fungi.
(§2) Antibacterial assays were performed against the following microorganisms: Bacillus subtilis ATCC 6633, Staphylococcus epidermidis ATCC 12228, Staphylococcus aureus ATCC 29213, Micrococcus luteus ATCC10240, Listeria monocytogenes ATCC 15313, methicillin-resistant Staphylococcus aureus ATCC 43300, Escherichia coli ATCC 8739, Acinetobacter baumannii ATCC 19606, Klebsiella aerogenes ATCC 13048, Pseudomonas aeruginosa 9027, and Salmonella enterica ATCC14208. The antibacterial activity was assessed in vitro using the minimum inhibitory concentration (MIC) method. MIC is defined as the lowest concentration of an antimicrobial agent that prevents visible bacterial growth after 24 h of incubation at 37 °C. The ionic liquids were dissolved in Mueller–Hinton broth (MBH) at concentrations ranging from 1 to 256 μg/mL. The broth was added (200 μL) to appropriate wells of a 96-well polystyrene microtitre plate. Then, 10 μL of a nutrient broth starter culture of each bacterial strain was added to achieve final inocula of approximately […] colony forming units (CFU)/mL. A growth control using nutrient broth medium without the ionic liquid was included. The plates were incubated 37 °C for 24 h. Bacterial growth was initially observed visually, with increased turbidity indicating cell growth. […] A color change of resazurine from blue to pink indicated bacterial metabolic activity. All the experiments were performed in triplicate to ensure reproducibility.

Acinetobacter baumannii = assay: MIC broth microdilution; conditions: ATCC19606; Acinetobacter baumannii ATCC 19606, 24 h, 37 °C
Description: as §1, §2

Staphylococcus aureus = assay: MIC broth microdilution; conditions: ATCC29213; Staphylococcus aureus ATCC 29213, 24 h, 37 °C
Description: as §1, §2

Micrococcus luteus = assay: MIC broth microdilution; conditions: Micrococcus luteus ATCC10240, 24 h, 37 °C
Description: as §1, §2

Listeria monocytogenes = assay: MIC broth microdilution; conditions: ATCC15313; Listeria monocytogenes ATCC 15313, 24 h, 37 °C
Description: as §1, §2

Escherichia coli = assay: MIC broth microdilution; conditions: ATCC8739; Escherichia coli ATCC 8739, 24 h, 37 °C
Description: as §1, §2

Pseudomonas aeruginosa = assay: MIC broth microdilution; conditions: Pseudomonas aeruginosa 9027, 24 h, 37 °C
Description: as §1, §2

[2] = tested on: Staphylococcus epidermidis; assay: MIC broth microdilution; conditions: ATCC12228; Staphylococcus epidermidis ATCC 12228, 24 h, 37 °C
Description: as §1, §2

Salmonella enterica = assay: MIC broth microdilution; conditions: Salmonella enterica ATCC14208, 24 h, 37 °C
Description: as §1, §2

SMILES | HC50 [1] | MIC (Klebsiella aerogenes) [µg/mL] | MIC (Acinetobacter baumannii) [µg/mL] | MIC (Staphylococcus aureus) [µg/mL] | MIC (Micrococcus luteus) [µg/mL] | MIC (Listeria monocytogenes) [µg/mL] | MIC (Escherichia coli) [µg/mL] | MIC (Pseudomonas aeruginosa) [µg/mL] | MIC [2] [µg/mL] | MIC (Salmonella enterica) [µg/mL]
CCCCCCCCCCCCOC(=O)C[N+](C)(C)CCO [C12ECholBr] | 232 ± 2 µM | > 256 | > 256 | 64 | 16 | > 256 | > 256 | > 256 | 64 | > 256
CCCCCCCCCCCCCCOC(=O)C[N+](C)(C)CCO.[Br-] [C14ECholBr, N-(2-hydroxyethyl)-N,N-dimethyl-2-oxo-2-(tetradecyloxy)ethan-1-aminium bromide] | 56 µM and 56 ± 1 µM | > 256 | > 256 | 128 | 8 | > 256 | > 256 | > 256 | 64 | > 256
CCCCCCCCCCOC(=O)C[N+](C)(C)CCO [C10ECholBr] | >2500 µM | > 256 | > 256 | > 256 | > 256 | > 256 | > 256 | > 256 | > 256 | > 256
